Target: TAAR1 (Mus musculus (Mouse), UniProt Q923Y8)
Assay: Radioligand binding assay on TAAR1: Kd of the radioligand
Settings: binding assay at 4° C.; species of TAAR1 not stated; read-out: calculated Kd value of the radioligand
Method: Cells at confluence were rinsed with ice-cold phosphate buffered saline without Ca^2+ and Mg^2+ containing 10 mM EDTA and pelleted by centrifugation at 1000 rpm for 5 min at 4° C. The pellet was then washed twice with ice-cold phosphate buffered saline and cell pellet was frozen immediately by immersion in liquid nitrogen and stored until use at −80° C. Cell pellet was then suspended in 20 ml HEPES-NaOH (20 mM), pH 7.4 containing 10 mM EDTA, and homogenized with a Polytron (PT 3000, Kinematica) at 10,000 rpm for 10 s. The homogenate was centrifuged at 48,000×g for 30 min at 4° C. and the pellet resuspended in 20 ml HEPES-NaOH (20 mM), pH 7.4 containing 0.1 mM EDTA (buffer A), and homogenized with a Polytron at 10,000 rpm for 10 s. The homogenate was then centrifuged at 48,000×g for 30 min at 4° C. and the pellet resuspended in 20 ml buffer A, and homogenized with a Polytron at 10,000 rpm for 10 s. Protein concentration was determined by the method of Pierce (Rockford, Ill.). […]
Binding assay was performed at 4° C. in a final volume of 1 ml, and with an incubation time of 30 min. […] The tubes and filters were then washed 3 times with 1 ml aliquots of cold buffer B. Filters were not dried and soaked in Ultima gold (45 μl/well, Packard Instrument Company) and bound radioactivity was counted by a TopCount Microplate Scintillation Counter (Packard Instrument Company).

c1ccc2c(c1)CCCC2C1=NCCN1 (racemic) [[^3H]-rac-2-(1,2,3,4-tetrahydro-1-naphthyl)-2-imidazoline]
Kd: 0.06 µM

Source: patent US8729113B2 (Hoffmann-La Roche Inc., priority 2008, dated 2014)
